Test results: patent US20220175761A1, “BI-LIGAND DRUG CONJUGATE AND USE THEREOF” (COHERENT BIOPHARMA (SUZHOU), LIMITED, priority 2019, published 2022)
Square brackets hold non-standard residues; d marks the D form. Peptide text beside a SMILES is read from it. * marks the point of attachment. Dolaproine = CO[C@@H]([C@@H]1CCCN1)[C@@H](C)C(=O)O; Dil = CC[C@H](C)[C@H](NC)[C@@H](CC(=O)O)OC; X1 = C[C@@H](N*)[C@@H](O)c1ccccc1; NMeV = CN[C@H](C(=O)O)C(C)C

Tests used:
LNCaP = assay: Pharmacodynamic study 2 in CDX model; format: in vivo, BALB/c-nude mice; conditions: 3 mg/kg D1, 8, 15, tail vein
Description: Experiment purpose: to perform a pharmacodynamic study of conjugate compound CB-20BK in a subcutaneous xenograft model (CDX) of humanized LNCaP, DU145 and NCI-H460 cell lines
The cells or tumor tissue mass were prepared and subcutaneously inoculated into the anterior right flank of BALB/c-nude mice. When the tumor volume expanded to 80-160 mm^3, a randomized grouping was performed, and a model control group and administration groups were set. The mice were administrated from the first day of grouping, wherein the administration dose was adjusted according to the latest weight measurement. The mice were administrated via tail vein injection at an administration volume of 10 μl/g. After grouping and administration, the effects of tumor growth and treatment on normal behaviors of animals, specifically including the activity of experimental animals, food intake and drinking status, weight gain or loss status, and other abnormal conditions in eyes, hair, etc., were monitored. After grouping and administration, the weight of mice was measured twice a week to calculate the rate of weight change; at the same time, the long diameter and short diameter of the tumor were measured with a vernier caliper, and the tumor volume, relative tumor proliferation rate, tumor volume inhibition rate and other indicators were calculated. […]

LU1380 = assay: Tumor growth inhibition in HuPrime xenograft lung cancer PDX model; format: in vivo, BALB/c-nude mice; conditions: 3 mg/kg, tail vein
Description: (§1) Experimental scheme: The tumor tissue mass were prepared and subcutaneously inoculated into the anterior right flank of BALB/c-nude mice. When the tumor volume expanded to 80-160 mm^3, a randomized grouping was performed, and a model control group and administration groups were set. The mice were administrated from the first day of grouping, wherein the administration dose was adjusted according to the latest weight measurement. The mice were administrated via tail vein injection at an administration volume of 10 μl/g and an administration dosage of 3 mg/kg. After grouping and administration, the effects of tumor growth and treatment on normal behaviors of animals, specifically including the activity of experimental animals, food intake and drinking status, weight gain or loss status, and other abnormal conditions in eyes, hair, etc., were monitored. After grouping and administration, the weight of mice was measured twice a week to calculate the rate of weight change; at the same time, the long diameter and short diameter of the tumor were measured with a vernier caliper, and the tumor volume, relative tumor proliferation rate, tumor volume inhibition rate and other indicators were calculated. The formula of tumor volume is TV=0.5 a×b^2, wherein a is the long diameter of a tumor and b is the short diameter of a tumor.

LU1206 = assay: as above; format: in vivo, BALB/c-nude mice; conditions: 3 mg/kg, tail vein
Description: as §1

LU0367 = assay: as above; format: in vivo, BALB/c-nude mice; conditions: 3 mg/kg, tail vein
Description: as §1

FOLR1 = molecular target: T1, FOLR1 (Homo sapiens, UniProt P15328); assay: BIAcore T200 binding affinity to FOLR1 (CM5 chip conjugated with FOLR1)
T1 construct: purchased R&D System 5646-FR
Text: Buffer: HBS-EP+ buffer 10× (GE, Cat #: BR100669), diluted 10 folds with deionized water before use.
In the experiment, CM5 chip was conjugated with ligand FOLR1 (R&D System, Cat #: 5646-FR).

[1] = test system: KB, MIA paca-2, HCC1954, CALU-3 and DU145 cell lines (CDX tumor models); assay: Pharmacodynamic study 1 of CB-20BK in CDX models; format: in vivo, BALB/c-nude mice; conditions: tail vein injection
Description: CB-20BK lyophilized powder was weighed, dissolved with PBS and prepared into a sample mother solution, and the mother solution was diluted with a physiological saline for injection to a sample solution with a working concentration for later use.
Main cell lines: KB human oral epidermoid carcinoma cells, MIA paca-2 human pancreatic cancer cells, HCC1954 human breast cancer cells, CALU-3 human lung adenocarcinoma cells and DU145 human prostate cancer cells.
Model construction: The cells were resuscitated, cultured, collected, counted, and subcutaneously injected into the right flank of BALB/c-nude mice. When the tumor grew and expanded to 80-160 mm^3, grouping and administration were performed, or rapidly expanded tumor masses were transferred and injected to mice for scale up.
Grouping: When the tumor grew to about 80-160 mm^3 on average, a grouping was performed, and a model control group and different doses of administration groups were set.
Administration: The mice were administrated via tail vein injection.
The weight of mice and the long diameter (a) and short diameter (b) of tumor mass were measured twice a week. The formula for the calculation of tumor volume (TV) is: TV=½×a×b^2.

[2] = test system: SK-BR-3 (human breast cancer cells); assay: Inhibition of cell line proliferation, CCK8; format: cell-based; conditions: SK-BR-3, 68-72 hours, CCK8
Description: Experimental operations: LNCaP, SK-BR-3, NCI-H226, CFPAC-1 and PANC-1 cells were prepared in advance and counted; with a culture medium (IMDM+10% FBS+1× L-Glutamine+1×P/S), the cells LNCaP, SK-BR-3 and CFPAC-1 were diluted to 4×10^4 cells/ml, NCI-H226 was diluted to 2.0×10^4 cells/ml and PANC-1 was diluted to 3.0×10^4 cells/ml; the diluted cell solution was plated in 96-well plates at 100 μl/well; and negative control and blank control wells were set on each plate. After adherent cell culture overnight, the diluted samples to be tested were added at 50 μl/well. The plates were placed in an incubator at 37° C., 5% CO2 and cultured for 68-72 hours. To each well, 15 μl (10% of the liquid volume in a well) of a color developing solution from CCK8 was added; and the plates were incubated at 37° C. for 45-70 minutes and each plate was read at 450 nm on a microplate reader. The data was edited using SoftMax Pro and a 4-P fitting curve was plotted.
Experimental Operations: LNCaP, SK-BR-3, MDA-MB-468 and CFPAC-1 cells were prepared in advance and counted; with a culture medium (IMDM+10% FBS+1× L-Glutamine+1×P/S), the cells LNCaP, SK-BR-3, MDA-MB-468 and CFPAC-1 were diluted to 4×10^4 cells/ml; the diluted cell solution was plated in 96-well plates at 100 µl/well; and negative control and blank control wells were set on each plate. After adherent cell culture overnight, the diluted samples to be tested were added at 50 μl/well. The plates were placed in an incubator at 37° C., 5% CO2 and cultured for 68-72 hours. To each well, 15 μl (10% of the liquid volume in a well) of a color developing solution from CCK8 was added; and the plates were incubated at 37° C. for 45-70 minutes and each plate was read at 450 nm on a microplate reader. The data was edited using SoftMax Pro and a 4-P fitting curve was plotted.

[3] = Body weight and clinical observation in the LU1206 study; conditions: 0.375 mg/kg on day 1, 8, 15
Description: BALB/c nude mice bore tumors subcutaneously and, when the tumor volume reached about 150 mm^3, were grouped into: low-dose, medium-dose and high-dose test sample groups, a small molecule MMAE control group, a targeting polypeptide 20BK-SM09 control group, and a blank control group (a total of 6 groups, and 8 mice per group); the mice were administered on day 1, day 8 and day 15 after the grouping; and the observation was continued for 14 days after the last administration.

[4] = FOLR1 on CM5 chip, N/D = no specific binding was detected

T1 sequence (P15328 25-233 limits assumed): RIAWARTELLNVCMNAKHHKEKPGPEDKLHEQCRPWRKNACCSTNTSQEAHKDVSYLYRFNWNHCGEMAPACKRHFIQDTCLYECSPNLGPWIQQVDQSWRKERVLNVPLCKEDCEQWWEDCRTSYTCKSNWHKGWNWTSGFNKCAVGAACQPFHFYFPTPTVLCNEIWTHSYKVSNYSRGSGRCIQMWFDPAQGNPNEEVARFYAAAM

| SMILES | Tumor growth inhibition rate (TGI) (LNCaP) | TGI (LU1380) | TGI (LU1206) | TGI (LU0367) | specific binding to FOLR1 (in words) (FOLR1; BIAcore T200) | Kd (FOLR1; [4]) | kd (FOLR1; [4]) | kon (FOLR1; FOLR1 on CM5 chip, N/D = no specific binding was detected, read-out: ka) | inhibitory effect in CDX tumor models (tumor volume) [1] | IC50 [2] | Weight [3] |
| --- | --- | --- | --- | --- | --- | --- | --- | --- | --- | --- | --- |
| CC[C@H](C)[C@@H]([C@@H](CC(=O)N1CCC[C@H]1[C@H](OC)[C@@H](C)C(=O)N[C@H](C)[C@@H](O)c1ccccc1)OC)N(C)C(=O)[C@@H](NC(=O)[C@H](C(C)C)N(C)C(=O)OCc1ccc(NC(=O)C(CCCNC(N)=O)NC(=O)[C@@H](NC(=O)CCCCCN2C(=O)CC(SC[C@H](NC(=O)[C@H](CCCCN)NC(=O)[C@H](CC(=O)O)NC(=O)[C@H](CC(=O)O)NC(=O)Cc3ccc(CNC(=O)NCCCC[C@H](NC(=O)N[C@@H](CCC(=O)O)C(=O)O)C(=O)O)cc3)C(=O)N[C@@H](CCCCNC(=O)CC[C@H](NC(=O)c3ccc(NCc4cnc5[nH]c(N)nc(=O)c5n4)cc3)C(=O)O)C(N)=O)C2=O)C(C)C)cc1)C(C)C (some centres unmarked) [CB-20BK] | 95.68% | 30.02% | 90.89% | 71.34% | specifically binds to FOLR1 with a good affinity | 0.127 nM | 0.000131 s⁻¹ | 1.03e+06 M⁻¹ s⁻¹ | good inhibitory effect |  |  |
| CC[C@H](C)[C@@H]([C@@H](CC(=O)N1CCC[C@H]1[C@H](OC)[C@@H](C)C(=O)N[C@H](C)[C@@H](O)c1ccccc1)OC)N(C)C(=O)[C@@H](NC(=O)[C@@H](NC)C(C)C)C(C)C [MMAE, monomethyl auristatin E] (H-[NMeV]V[Dil][Dolaproine]-X1) |  |  |  |  |  |  |  |  |  | 2 nM | 23.6 g |
